Data published in paper PMC9397467 (Virulence, 2022).

Target: T1, Sortase A (SrtA) (Staphylococcus aureus, UniProt Q2FV99)
T1 sequence (Q2FV99 60-206 limits assumed): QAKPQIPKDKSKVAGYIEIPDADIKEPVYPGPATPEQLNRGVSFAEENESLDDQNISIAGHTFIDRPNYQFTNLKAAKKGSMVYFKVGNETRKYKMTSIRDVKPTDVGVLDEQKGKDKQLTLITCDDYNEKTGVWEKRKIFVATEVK
Assay: fluorescence quenching
Assay type: binding

Kd: 13.8 µM
SMILES: Oc1cc(O)c2cc(O)c(-c3ccc(O)c(O)c3)[o+]c2c1 [cyanidin chloride]
